# Read-outs that look alike come from different tables or passages of the source.
# Key:
# Format in all cases: cell-based
# MIApaca/FG2 cells = test: EC50 assay of small molecule activated γδ T cells to kill MIApaca/FG2 tumor cells (3-fold dilution protocol); conditions: 0.05-100 nM, read-out: MIApaca killing (EC50)
# Protocol: γδT cells and MIApaca/FG2 tumor cell lines were expanded and cultured in vitro. MIApaca/FG2 cells were digested, and the cells were counted and resuspended in DMEM complete medium, the density of the cell suspension was adjusted and added into a 96-well plate at 5×10^3 cells/100 […]/well for overnight incubation. On the next day, the test compound and the control compound were diluted at a 3-fold ratio with DMSO, and 4 μL of the diluted compound was added to 96 μL of culture medium for 25-fold dilution. 5 μL of 25-fold diluted compound was transferred to the corresponding well which had been plated with tumor cells, and the actual detection concentration was in the range of 0.05-100 nM. γδT cells were resuspended in γδT complete medium, and the density of the cell suspension was adjusted according to the effector-target ratio of E:T=2:1, and then the cell was added to the corresponding well at 1×10^4 cells/100 μL/well. After co-culture at 37° C., 5% CO2 for 20 hours, the cells were centrifuged. The supernatant was removed, and 50 μL of cell lysate containing fluorescein substrate was added to each well. After standing for 18 minutes in the dark, the signal of chemiluminescence was detected. The EC50 value was calculated by four-parameter fitting, with the corresponding signal value of the well with only tumor cells as the minimum killing value, and the corresponding value of the well without tumor cells as the maximum killing value. The killing data of MIApaca/FG2 cells is as follows: […]
# SKOV3/ELP cells = test: EC50 assay of small molecule activated γδ T cells to kill SKOV3/ELP tumor cells; conditions: γδT cells + SKOV3/ELP, E:T=2:1, co-culture 20 hours, 0.05-100 nM, read-out: SKOV3 killing (EC50)
# Protocol: (§1) γδT cells and SKOV3/ELP tumor cell lines were expanded and cultured in vitro. The SKOV3/ELP cells were digested, and the cells were counted and resuspended in MC5A complete medium, the density of the cell suspension was adjusted and added into a 96-well plate at 5×10^3 cells/100 L/well for overnight incubation. On the next day, the test compound and the control compound were diluted at a 3-fold ratio with DMSO, and 4 μL of the diluted compound was added to 96 μL of culture medium for 25-fold dilution. 5 μL of 25-fold diluted compound was transferred to the corresponding well which had been plated with tumor cells, and the actual detection concentration was in the range of 0.05-100 nM. γδT cells were resuspended in γδT complete medium, and the density of the cell suspension was adjusted according to the effector-target ratio of E:T=2:1, and then the cell was added to the corresponding well at 1×10^4 cells/100 μL/well. After co-culture at 37° C., 5% CO2 for 20 hours, the cells were centrifuged. […] After standing for 18 minutes in the dark, the signal of chemiluminescence was detected. The EC50 value was calculated by four-parameter fitting, with the corresponding signal value of the well with only tumor cells as the minimum killing value, and the corresponding value of the well without tumor cells as the maximum killing value.
# MV4-11-luc cells = test: EC50 assay of small molecule activated γδ T cells to kill MV4-11-luc tumor cells; conditions: γδT cells + MV4-11-luc, E:T=2:1, co-culture 20 hours, 0.05-100 nM, read-out: MV4-11 killing (EC50)
# Protocol: as §1, with “and MV4-11-luc” for “and SKOV3/ELP”, “The MV4-11-luc” for “The SKOV3/ELP”, “in IMDM” for “in MC5A”, “cells/100 μL/well” for “cells/100 L/well”
# Huh7/FG2 cells = test: EC50 assay of small molecule activated γδ T cells to kill Huh7/FG2 tumor cells; conditions: γδT cells + Huh7/FG2, E:T=5:1, co-culture 20 hours, 0.05-100 nM, read-out: Huh7 killing (EC50)
# Protocol: as §1, with “and Huh7/FG2” for “and SKOV3/ELP”, “The Huh7/FG2” for “The SKOV3/ELP”, “in DMEM” for “in MC5A”, “cells/100 μL/well” for “cells/100 L/well”, “of E:T=5:1,” for “of E:T=2:1,”, “at 2.5×10^4” for “at 1×10^4”
Structure (SMILES),"EC50 (MIApaca/FG2 cells; Homo sapiens, MIA PaCa-2, γδT cells + MIApaca/FG2, E:T=2:1, co-culture 20 hours)","EC50 (SKOV3/ELP cells; Homo sapiens, SK-OV-3)",EC50 (MV4-11-luc cells; Homo sapiens),"EC50 (Huh7/FG2 cells; Homo sapiens, Huh-7)","EC50 (MIApaca/FG2 cells; γδT cells + MIApaca/FG2, E:T=2:1, co-culture 20 hours)",EC50 (SKOV3/ELP cells),EC50 (MV4-11-luc cells),EC50 (Huh7/FG2 cells)
"C/C(=C\CCP(=O)(N[C@@H](C)C(=O)OC(C)C)Oc1ccccc1)CO (stereo partly drawn) [Control compound 1, Isopropyl (((E)-5-hydroxy-4-methylpent-3-en-1-yl)(phenoxy)phosphoryl)-L-alaninate, reference compound]",0.53 nM,1.14 nM,0.05 nM,1.68 nM,–,–,–,–
"C/C(=C\CC[P@@](=O)(N[C@@H](C)C(=O)O[C@@H]1CCOC1)Oc1ccccc1)CO [Compound 19, (R)-tetrahydrofuran-3-yl ((S)-((R)-5-hydroxy-4-methylpent-3-en-1-yl)(phenoxy)phosphoryl)-L-alaninate]",–,–,–,–,0.28 nM,0.47 nM,0.004 nM,0.42 nM

# From patent US20260207637A1, “MODULATOR FOR PROMOTING BINDING OF BUTYROPHILIN 3A1/2A1” (priority 2023, published 2026)
